Reference: ChEMBL document CHEMBL1201862, “PubChem BioAssay data set” (2004)
Calls of active or inactive are those of the source.

Experiments:
[1] = NIH-3T3 fibroblast cytotoxicity, dose response, cytotoxicity control, cell-based, fluorescence, Alamar Blue, secondary assay (AID 2327); assay type: functional;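 also: NIH-3T3 mouse fibroblasts cultured with fluconazole at 8 µg/mL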
[2] = fluconazole-exposed Candida albicans growth modulators – fluorescence, retest, confirmation (AID 2467); assay type: functional, cell-based
[3] = target: T1, Microphthalmia-associated transcription factor (Homo sapiens, UniProt O75030); assay: reducers of TRPM1 reporter luminescence, concentration series – cell-based, SK-MEL-5, cherry-picked, set 3, MITF inhibitor project, dose response (AID 493073); assay type: functional;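 also: SK-MEL-5 melanoma cells with luciferase driven by the MITF target TRPM1 promoter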
T1 sequence (O75030 whole entry): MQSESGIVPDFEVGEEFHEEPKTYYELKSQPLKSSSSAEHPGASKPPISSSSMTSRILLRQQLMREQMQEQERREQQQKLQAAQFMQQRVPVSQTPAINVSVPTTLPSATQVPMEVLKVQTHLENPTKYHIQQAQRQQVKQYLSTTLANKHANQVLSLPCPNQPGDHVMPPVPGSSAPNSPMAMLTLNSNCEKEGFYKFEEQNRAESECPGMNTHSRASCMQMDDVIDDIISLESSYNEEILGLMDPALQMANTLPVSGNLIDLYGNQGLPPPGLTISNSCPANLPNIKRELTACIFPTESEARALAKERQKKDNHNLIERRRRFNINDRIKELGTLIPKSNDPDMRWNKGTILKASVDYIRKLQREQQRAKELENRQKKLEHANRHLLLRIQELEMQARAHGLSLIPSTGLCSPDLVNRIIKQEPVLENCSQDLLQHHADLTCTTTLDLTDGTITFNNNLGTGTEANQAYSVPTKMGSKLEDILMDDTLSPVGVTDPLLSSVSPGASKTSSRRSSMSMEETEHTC

[4] = target: Protein Wnt-3a (Mus musculus, UniProt P27467); assay: antagonism of Wnt3a pathway luciferase reporter – Wnt-LIGHT cells, luminescence, selectivity assay for Gli-SUFU antagonist project, dose response (AID 651570); assay type: functional; details: read-out: IC50_Mean;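 also: Wnt-LIGHT reporter cells stimulated with conditioned medium from Wnt3a-producing cells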
[5] = tested on: INS1; assay: INS-1E survival protection against cytokine death – cell-based, luminescence, retest, dose response (AID 449756); assay type: functional; details: Rattus norvegicus;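 also: cell death triggered by IL-1 beta plus TNF-alpha plus IFN-gamma mixture; protective hits raise ATP signal compared with cytokine alone wells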
[6] = tested on: Vero; assay: cells; assay type: functional; details: Chlorocebus sabaeus
[7] = target: SUMO-activating enzyme (Homo sapiens, UniProt Q9UBT2); assay: blockers of UBC9-mediated SUMO conjugation – biochemical, AlphaScreen, SUMOylation inhibitor project, confirmation (AID 2018); assay type: functional
[8] = target: T2, Short transient receptor potential channel 4 (Mus musculus, UniProt Q9QUQ5); assay: potentiation of DAMGO-evoked TRPC4 calcium signal – cell-based, HEK293 TRPC4/mu-opioid, Fluo-4 calcium, EC20 DAMGO, dose response (AID 434941); assay type: functional
T2 sequence (Q9QUQ5 whole entry): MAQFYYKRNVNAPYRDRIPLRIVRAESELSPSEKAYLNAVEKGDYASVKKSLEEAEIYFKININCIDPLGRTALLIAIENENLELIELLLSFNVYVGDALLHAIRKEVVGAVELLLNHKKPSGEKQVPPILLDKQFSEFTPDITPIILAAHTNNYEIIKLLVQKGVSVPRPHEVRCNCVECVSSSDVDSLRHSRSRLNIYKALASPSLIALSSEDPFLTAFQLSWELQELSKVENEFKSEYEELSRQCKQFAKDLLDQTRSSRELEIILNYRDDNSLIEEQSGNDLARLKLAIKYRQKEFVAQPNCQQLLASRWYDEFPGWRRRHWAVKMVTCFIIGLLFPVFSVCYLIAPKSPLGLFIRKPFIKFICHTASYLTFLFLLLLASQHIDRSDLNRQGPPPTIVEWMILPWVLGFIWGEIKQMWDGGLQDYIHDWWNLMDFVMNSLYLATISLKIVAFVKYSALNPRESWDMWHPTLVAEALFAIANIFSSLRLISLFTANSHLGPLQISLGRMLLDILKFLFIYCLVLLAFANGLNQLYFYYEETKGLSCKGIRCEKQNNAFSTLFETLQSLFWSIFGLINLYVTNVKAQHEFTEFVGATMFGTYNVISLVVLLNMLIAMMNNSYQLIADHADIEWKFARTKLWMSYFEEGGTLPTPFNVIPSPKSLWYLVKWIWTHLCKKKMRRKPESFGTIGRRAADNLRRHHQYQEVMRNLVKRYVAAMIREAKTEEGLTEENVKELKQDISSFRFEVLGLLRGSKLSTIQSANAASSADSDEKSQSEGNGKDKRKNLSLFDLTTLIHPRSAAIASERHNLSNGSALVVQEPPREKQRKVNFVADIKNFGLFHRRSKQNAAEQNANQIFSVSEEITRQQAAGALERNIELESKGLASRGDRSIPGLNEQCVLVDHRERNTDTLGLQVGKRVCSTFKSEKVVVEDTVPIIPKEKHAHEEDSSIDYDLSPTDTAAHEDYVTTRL

[9] = target: DNA damage-inducible transcript 3 protein (Mus musculus, UniProt P35639); assay type: functional, Cricetulus griseus
[10] = target: Cytochrome P450 2C9 (Homo sapiens, UniProt P11712)
[11] = target: T3, Cytochrome P450 1A2 (Homo sapiens, UniProt P05177);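 also: PubChem cytochrome P450 panel assay, CYP1A2 panel member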
T3 sequence (P05177 whole entry): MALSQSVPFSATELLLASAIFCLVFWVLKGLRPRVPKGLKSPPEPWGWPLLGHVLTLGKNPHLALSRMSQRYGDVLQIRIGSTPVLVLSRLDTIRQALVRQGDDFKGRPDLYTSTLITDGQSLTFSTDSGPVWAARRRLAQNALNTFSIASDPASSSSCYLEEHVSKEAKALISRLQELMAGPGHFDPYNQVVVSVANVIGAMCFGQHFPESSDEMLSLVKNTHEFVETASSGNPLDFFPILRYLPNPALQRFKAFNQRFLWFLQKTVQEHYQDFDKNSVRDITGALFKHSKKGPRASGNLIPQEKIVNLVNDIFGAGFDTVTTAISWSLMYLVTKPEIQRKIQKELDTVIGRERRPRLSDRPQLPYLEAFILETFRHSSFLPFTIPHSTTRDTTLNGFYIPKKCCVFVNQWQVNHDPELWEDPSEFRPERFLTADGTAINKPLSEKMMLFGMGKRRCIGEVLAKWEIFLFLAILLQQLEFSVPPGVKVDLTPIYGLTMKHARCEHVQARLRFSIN

[12] = tested on: HEK293; assay: cells; assay type: functional, cell-based; details: Homo sapiens
[13] = tested on: HEK293; assay: NOD2 signaling inhibitors in MDP-stimulated cells, cell-based, uHTS, luminescence (AID 2001); assay type: functional; details: Homo sapiens
[14] = tested on: HEK293; assay: inhibition of NOD1-driven NF-kB reporter – cell-based, luminescence, uHTS, primary screen (AID 1578); assay type: functional; details: Homo sapiens
[15] = tested on: HEK293; assay: cells; assay type: functional, cell-based; details: Homo sapiens; remark: listed apart in the source
[16] = target: T4, E3 ubiquitin-protein ligase XIAP (Homo sapiens, UniProt P98170); assay: small molecules displacing peptide from XIAP – biochemical, IAP family, fluorescence polarization (AID 1018); assay type: functional
[17] = target: T4, E3 ubiquitin-protein ligase XIAP; assay: Counter Screen using XIAP-Bir3 for Chemical Antagonists of Bir1/2 domains of IAP-family anti-apoptotic proteins. [Related pubchem assays (depositor defined):AID1018, AID1449, AID1514, AID1638, AID1749, AID1750, AID488957, AID488963]
[18] = target: Trypsin (Sus scrofa, UniProt P00761); assay: trypsin protease activity blockade – biochemical, quenched peptide fluorescence, cherry-pick, selectivity assay for Rce1 protease inhibitor project, dose response (AID 488789)
[19] = target: T5, CAAX prenyl protease 2 (Saccharomyces cerevisiae S288c, UniProt Q03530); assay type: biochemical
T5 sequence (Q03530 whole entry): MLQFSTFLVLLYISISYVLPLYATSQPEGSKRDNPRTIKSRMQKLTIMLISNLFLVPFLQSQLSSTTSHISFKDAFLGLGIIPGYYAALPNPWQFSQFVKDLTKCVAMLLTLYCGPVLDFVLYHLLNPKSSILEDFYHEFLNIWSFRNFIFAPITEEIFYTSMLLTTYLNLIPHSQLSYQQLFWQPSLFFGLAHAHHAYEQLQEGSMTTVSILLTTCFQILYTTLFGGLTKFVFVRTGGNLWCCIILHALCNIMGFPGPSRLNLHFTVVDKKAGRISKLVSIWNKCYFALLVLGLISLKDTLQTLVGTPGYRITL

[20] = Trypanosoma cruzi growth suppression in host cells – NIH3T3 host cells, beta-gal luminescence, confirmation (AID 2044); assay type: functional, cell-based;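 also: intracellular parasites grown in NIH/3T3 mouse fibroblasts as host cells; luminescent beta-galactosidase reporter signal from transgenic T. cruzi replicating inside host cells; inhibitors lower the luminescence signal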
[21] = NIH3T3 cell viability loss – ATP luminescence, mouse fibroblasts, counter-screen, dose response (AID 2010); assay type: functional, cell-based;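 also: cells exposed to compound for about 90 hours before reading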
[22] = target: DNA dC->dU-editing enzyme APOBEC-3A (Homo sapiens, UniProt P31941); assay: Dose Response confirmation of small molecule APOBEC3A DNA Deaminase Inhibitors via a fluorescence-based single-stranded DNA deaminase assay. [Related pubchem assays (depositor defined):AID493011, AID493024]; assay type: functional
[23] = target: DNA dC->dU-editing enzyme APOBEC-3G (Homo sapiens, UniProt Q9HC16); assay type: functional;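 also: Dose-response counterscreen measuring inhibition of APOBEC3G DNA deaminase activity, run while confirming APOBEC3A inhibitors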
[24] = target: T6, Carboxy-terminal domain RNA polymerase II polypeptide A small phosphatase 1 (Homo sapiens, UniProt Q9GZU7); assay: CTDSP1 inhibitors, concentration-response, biochemical, absorbance readout, ultra-high-throughput screen actives (AID 540297); assay type: functional
T6 sequence (Q9GZU7 whole entry): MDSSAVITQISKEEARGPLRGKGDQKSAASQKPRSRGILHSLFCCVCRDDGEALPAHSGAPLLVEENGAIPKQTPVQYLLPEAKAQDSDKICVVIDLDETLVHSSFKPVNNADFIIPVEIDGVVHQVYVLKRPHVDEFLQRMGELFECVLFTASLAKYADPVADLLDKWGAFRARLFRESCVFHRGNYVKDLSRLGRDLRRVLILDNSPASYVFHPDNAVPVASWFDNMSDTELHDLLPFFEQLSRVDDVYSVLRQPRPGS

[25] = target: T2, Short transient receptor potential channel 4; assay: calcium entry via TRPC4 opening agents – cell-based, HEK293 TRPC4/mu-opioid, Fluo-4 calcium, dose response (AID 434937); assay type: functional
[26] = target: Cytochrome P450 2C19 (Homo sapiens, UniProt P33261); assay: Cytochrome panel assay with activity outcomes. Panel member name: p450-cyp2c19 Compounds with AC50 equal or less than 10 uM are considered active; assay type: functional; details: read-out: AC50
Sequence of Cytochrome P450 2C19 (P33261 whole entry): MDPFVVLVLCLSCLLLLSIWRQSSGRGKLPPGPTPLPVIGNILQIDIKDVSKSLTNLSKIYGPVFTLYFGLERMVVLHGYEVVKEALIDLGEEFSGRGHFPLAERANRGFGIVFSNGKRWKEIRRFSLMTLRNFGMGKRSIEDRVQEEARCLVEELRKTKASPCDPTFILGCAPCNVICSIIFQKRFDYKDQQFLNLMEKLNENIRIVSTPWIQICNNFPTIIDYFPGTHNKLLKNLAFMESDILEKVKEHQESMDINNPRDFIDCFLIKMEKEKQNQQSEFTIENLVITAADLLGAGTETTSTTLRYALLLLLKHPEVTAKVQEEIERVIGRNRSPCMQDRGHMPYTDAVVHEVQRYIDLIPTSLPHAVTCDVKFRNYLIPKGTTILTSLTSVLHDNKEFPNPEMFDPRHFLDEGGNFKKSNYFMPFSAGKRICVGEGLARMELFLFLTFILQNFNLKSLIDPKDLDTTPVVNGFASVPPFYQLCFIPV

Sequence of SUMO-activating enzyme (Q9UBE0 whole entry): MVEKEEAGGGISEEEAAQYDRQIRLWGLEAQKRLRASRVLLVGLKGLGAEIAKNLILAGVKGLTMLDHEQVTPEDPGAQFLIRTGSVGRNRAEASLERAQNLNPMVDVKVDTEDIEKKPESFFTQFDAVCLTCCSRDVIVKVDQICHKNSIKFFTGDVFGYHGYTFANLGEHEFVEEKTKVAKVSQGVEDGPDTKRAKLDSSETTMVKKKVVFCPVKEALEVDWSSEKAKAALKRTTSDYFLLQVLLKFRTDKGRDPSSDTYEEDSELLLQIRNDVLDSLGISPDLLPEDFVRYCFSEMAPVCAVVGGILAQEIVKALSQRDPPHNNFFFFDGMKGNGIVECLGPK
Sequence of SUMO-activating enzyme (Q9UBT2 whole entry): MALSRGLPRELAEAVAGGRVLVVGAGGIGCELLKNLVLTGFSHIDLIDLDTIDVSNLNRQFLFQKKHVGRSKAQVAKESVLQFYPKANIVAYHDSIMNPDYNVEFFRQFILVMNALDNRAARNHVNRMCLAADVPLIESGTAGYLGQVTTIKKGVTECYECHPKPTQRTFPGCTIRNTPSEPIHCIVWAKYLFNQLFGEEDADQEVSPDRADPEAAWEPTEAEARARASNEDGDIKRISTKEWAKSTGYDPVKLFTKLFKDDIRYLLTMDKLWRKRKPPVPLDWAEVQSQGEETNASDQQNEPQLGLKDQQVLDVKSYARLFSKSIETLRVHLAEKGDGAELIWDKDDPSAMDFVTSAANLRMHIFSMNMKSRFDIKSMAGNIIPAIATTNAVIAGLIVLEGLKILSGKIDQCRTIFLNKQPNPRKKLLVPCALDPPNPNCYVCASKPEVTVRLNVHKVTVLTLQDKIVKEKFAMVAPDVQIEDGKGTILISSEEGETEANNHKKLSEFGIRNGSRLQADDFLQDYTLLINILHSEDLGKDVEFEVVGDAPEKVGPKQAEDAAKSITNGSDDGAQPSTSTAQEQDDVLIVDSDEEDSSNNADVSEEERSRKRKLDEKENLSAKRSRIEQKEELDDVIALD
T4 sequence (P98170 whole entry): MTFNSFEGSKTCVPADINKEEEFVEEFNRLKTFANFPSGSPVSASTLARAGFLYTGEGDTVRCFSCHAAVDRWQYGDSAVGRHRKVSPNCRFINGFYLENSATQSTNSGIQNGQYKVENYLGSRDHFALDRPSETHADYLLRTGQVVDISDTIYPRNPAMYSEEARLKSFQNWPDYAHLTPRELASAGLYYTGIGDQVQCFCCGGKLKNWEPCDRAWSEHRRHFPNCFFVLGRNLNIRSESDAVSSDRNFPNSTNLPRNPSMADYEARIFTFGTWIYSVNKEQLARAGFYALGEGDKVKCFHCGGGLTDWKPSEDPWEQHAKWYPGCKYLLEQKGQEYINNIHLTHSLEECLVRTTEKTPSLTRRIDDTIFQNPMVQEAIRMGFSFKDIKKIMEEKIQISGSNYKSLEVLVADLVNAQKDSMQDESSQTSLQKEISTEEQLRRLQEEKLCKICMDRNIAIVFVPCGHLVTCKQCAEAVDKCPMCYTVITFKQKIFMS
Sequence of Cytochrome P450 2C9 (P11712 whole entry): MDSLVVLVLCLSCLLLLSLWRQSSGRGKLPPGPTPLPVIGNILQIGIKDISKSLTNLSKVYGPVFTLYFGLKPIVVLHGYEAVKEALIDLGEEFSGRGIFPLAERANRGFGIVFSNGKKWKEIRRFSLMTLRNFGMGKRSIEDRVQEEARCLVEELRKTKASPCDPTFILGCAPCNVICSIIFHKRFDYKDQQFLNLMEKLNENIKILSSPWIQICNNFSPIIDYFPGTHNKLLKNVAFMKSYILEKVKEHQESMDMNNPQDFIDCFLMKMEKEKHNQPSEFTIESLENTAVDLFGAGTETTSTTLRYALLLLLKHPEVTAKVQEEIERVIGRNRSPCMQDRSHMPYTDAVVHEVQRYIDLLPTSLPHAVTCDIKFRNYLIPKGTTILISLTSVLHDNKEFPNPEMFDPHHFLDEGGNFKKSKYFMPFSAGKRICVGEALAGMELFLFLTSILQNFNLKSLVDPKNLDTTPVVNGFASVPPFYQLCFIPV
Sequence of DNA dC->dU-editing enzyme APOBEC-3A (P31941 whole entry): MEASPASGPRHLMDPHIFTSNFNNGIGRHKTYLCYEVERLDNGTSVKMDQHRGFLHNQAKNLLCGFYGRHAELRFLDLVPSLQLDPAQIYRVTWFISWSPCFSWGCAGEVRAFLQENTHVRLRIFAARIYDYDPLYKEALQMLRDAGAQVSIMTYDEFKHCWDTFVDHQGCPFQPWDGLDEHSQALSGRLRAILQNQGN
Sequence of DNA damage-inducible transcript 3 protein (P35639 whole entry): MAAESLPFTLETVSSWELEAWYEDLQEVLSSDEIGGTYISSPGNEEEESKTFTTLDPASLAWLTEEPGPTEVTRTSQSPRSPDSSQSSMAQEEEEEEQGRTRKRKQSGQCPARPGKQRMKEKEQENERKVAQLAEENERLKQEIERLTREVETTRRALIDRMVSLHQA
Sequence of DNA dC->dU-editing enzyme APOBEC-3G (Q9HC16 whole entry, the tested form may be a part): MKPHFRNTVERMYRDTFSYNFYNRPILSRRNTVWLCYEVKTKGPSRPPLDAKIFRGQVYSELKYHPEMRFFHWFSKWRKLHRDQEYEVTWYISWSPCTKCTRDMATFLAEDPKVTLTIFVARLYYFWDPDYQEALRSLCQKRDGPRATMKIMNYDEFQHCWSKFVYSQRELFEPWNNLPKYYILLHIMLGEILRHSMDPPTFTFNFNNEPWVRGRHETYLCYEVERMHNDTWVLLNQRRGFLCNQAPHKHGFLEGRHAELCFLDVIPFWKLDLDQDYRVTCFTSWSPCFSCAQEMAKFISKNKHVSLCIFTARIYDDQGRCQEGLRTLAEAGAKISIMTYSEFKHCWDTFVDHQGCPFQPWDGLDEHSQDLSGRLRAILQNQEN
Sequence of Protein Wnt-3a (P27467 whole entry): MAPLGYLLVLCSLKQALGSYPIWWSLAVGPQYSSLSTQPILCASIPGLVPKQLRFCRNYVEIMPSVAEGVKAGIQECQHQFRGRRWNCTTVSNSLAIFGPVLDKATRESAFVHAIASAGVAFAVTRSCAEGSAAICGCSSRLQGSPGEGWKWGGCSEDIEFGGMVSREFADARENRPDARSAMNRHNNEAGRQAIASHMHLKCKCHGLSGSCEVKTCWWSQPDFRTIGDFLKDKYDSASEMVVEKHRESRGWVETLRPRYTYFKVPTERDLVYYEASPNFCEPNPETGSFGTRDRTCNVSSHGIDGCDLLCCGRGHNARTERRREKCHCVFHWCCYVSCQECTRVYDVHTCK
Sequence of Trypsin (P00761 whole entry): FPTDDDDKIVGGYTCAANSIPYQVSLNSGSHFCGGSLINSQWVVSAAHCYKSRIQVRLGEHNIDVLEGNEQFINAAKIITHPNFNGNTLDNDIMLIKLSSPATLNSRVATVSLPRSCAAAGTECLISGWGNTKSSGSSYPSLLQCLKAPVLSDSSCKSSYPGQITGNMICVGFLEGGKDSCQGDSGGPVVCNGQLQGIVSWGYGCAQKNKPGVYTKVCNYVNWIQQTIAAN

What does the source list for `CCOc1ccc(N2C(=O)/C(=C\NNc3nc(C)cc(C)n3)c3ccccc3C2=O)cc1`?
EC50 [1]: 47.9 µM (active); EC50 [2]: > 38 µM (not active); AC50 [3]: 3.48 µM (active); IC50 [4]: 11.2 µM (active); AC50 [5]: 2.24 µM (active); CC50 [6]: 10.3 µM (active)

For `Nc1c(C(=O)NCc2ccco2)c2nc3ccccc3nc2n1CCc1ccc(F)cc1`, which IC50 [7] is on record?
The IC50 was 34.7 µM (active).

Which EC50 [8] does the source give for `Cc1ccc(S(=O)(=O)N2CCC(N3CCN(C)CC3)CC2)cc1Cl` here?
Its EC50 is 940 nM (active).

Which “Absolute IC50 (CHOP)” value [9] does the source give for `COc1ccccc1-c1nnc(NC(=O)c2ccc(S(=O)(=O)N(C)Cc3ccccc3)cc2)o1` here?
The value was 10 µM.

For `C[C@@]12CC[C@@H]3c4ccc(O)cc4CC[C@H]3[C@H]1CC[C@H]2O`, which AC50 [10] is on record?
Its AC50 is “inconclusive”.

What about the AC50 [11] of the same compound?
The AC50 was 5.01 µM (inconclusive).

Which results are given for `Cc1cccc(NC(=O)c2cccc(NS(=O)(=O)c3ccc(Cl)cc3)c2)c1`?
IC50 [12]: > 20 µM (inactive); IC50 [13]: 12.6 µM (inactive); EC50 [14]: 9.39 µM (active); IC50 [15]: > 20 µM (inactive)

What does the source list for `Nc1c(NC2CCCCC2)c2ccccc2oc1=O`?
IC50 [16]: > 100 µM (not active); IC50 [17]: > 100 µM (inactive)

For `Cc1ccc(/C=C2\SC(=S)N(CCC(=O)NNS(=O)(=O)c3ccc(C)cc3)C2=O)cc1`, which IC50 [16] is on record?
The IC50 was > 100 µM (not active).

And the IC50 [17]?
The IC50 was > 100 µM (inactive).

With `O=C(NNC(=O)c1cccc2ccccc12)c1ccc(-c2ccccc2)cc1` as the compound, how does the “Absolute IC50 (CHOP)” value [9] read?
The value was 10 µM.

With `CCc1cc(=O)oc2c3c(cc(OCC(=O)NCCCCCC(=O)O)c12)OC(C)(C)CC3` as the compound, how does the IC50 [7] read?
The IC50 was > 100 µM (inactive).

What about the AC50 [18] of the same compound?
Its AC50 is 4.32 µM (active).

What about the AC50 [19] of the same compound?
The AC50 was 14 µM (active).

What does the source list for `O=[N+]([O-])c1ccc(/C=N/Nc2nc(N3CCCCC3)nc(N3CCCCC3)n2)o1`?
EC50 [20]: 225 nM (active); EC50 [8]: 5960 nM (active); EC50 [21]: > 60 µM (inconclusive)

Which IC50 [22] does the source give for `C[C@@H]1CC2(CCCC[N+]2(C)C)C[C@H]1C` here?
Its IC50 is 1.61 µM (active).

And the IC50 [23]?
The IC50 was 3.7 µM (active).

Which IC50 [16] does the source give for `CCN(CC)c1ccc(S(=O)(=O)N2CCOCC2)cc1NC(=O)CSc1cccc[n+]1[O-]` here?
The IC50 was > 100 µM (not active).

What about the IC50 [17] of the same compound?
The IC50 was > 100 µM (inactive).

Which results are given for `CCOc1ccc(OCCCC(=O)N2CCN(S(=O)(=O)c3ccc(Cl)cc3)CC2)cc1`?
IC50 [22]: 2.04 µM (active); IC50 [23]: 2.23 µM (active); IC50 [24]: 6.6 µM (active)

For `Nc1cc(N2CCNCC2)ccc1[N+](=O)[O-]`, which EC50 [25] is on record?
Its EC50 is 1.19 µM (active).

And the EC50 [8]?
The EC50 was 190 nM (active).

Which IC50 [7] does the source give for `O=C(NNC(=O)c1sc2ccccc2c1Cl)Nc1ccc(Cl)cc1` here?
Its IC50 is 25.8 µM (active).

What about the AC50 [26] of the same compound?
Its AC50 is 3.55 µM (inconclusive).

What about the AC50 [10] of the same compound?
Its AC50 is “inconclusive”.
